The source of these data is ChEMBL document CHEMBL3627707, “Incorporation of metabolically stable ketones into a small molecule probe to increase potency and water solubility” (Bioorg Med Chem Lett, 2015).

Data set [1] in a line: Metabolic stability in mouse liver microsomes assessed as compound remaining after 30 mins by LC-MS/MS analysis. The conditions noted are these: read-out: Stability. The data set is classed as ADME. Background: Microsomes from liver hold many membrane-bound enzymes, among them those of drug oxidation.
Data set [2] in a line: Metabolic stability in mouse liver microsomes assessed as compound remaining after 45 mins by LC-MS/MS analysis. The data set is classed as ADME. The note with it: read-out: Stability.
Data set [3] in a line: Selectivity ratio of IC50 for human BJeH cells to IC50 for human RAS-G12V overexpressing BJeLR cells. The data set is classed as ADME, cell-based. The note with it: BJeH cells and RAS-G12V overexpressing BJeLR cells, read-out: Ratio IC50.
A short description of data set [4]: Metabolic stability in mouse liver microsomes assessed as compound remaining after 5 mins by LC-MS/MS analysis. Format: ADME. The note with it: for remaining at 5 min: liver microsomes, read-out: Stability; for Stability: microsomes, 5 min.
A short description of data set [5]: Growth inhibition of human RAS-G12V overexpressing BJeLR cells after 48 hrs by alamar blue assay. The data set is classed as functional, cell-based. For orientation: Resazurin is reduced to fluorescent resorufin, in cell work by metabolically active cells.
For the next data set, the system named is DRD. In words: Growth inhibition of human RAS-G12V overexpressing DRD cells after 48 hrs by alamar blue assay. Format: functional, cell-based.
A short description of data set [6]: Metabolic stability in mouse liver microsomes assessed as compound remaining after 15 mins by LC-MS/MS analysis. The data set is classed as ADME. The conditions noted are these: read-out: Stability.
Data set [7] can be described thus: (§1) Half life in mouse liver microsomes by LC-MS/MS analysis. Format: ADME. The note with it: liver microsomes.
The subject of another data set is Plasma. In words: Stability in mouse plasma at 500 ng/ml measured upto 120 mins. The data set is classed as ADME, cell-free. The conditions noted are these: 2 h.
The nature of data set [8]: Growth inhibition of human HT1080 cells after 48 hrs by alamar blue assay. The data set is classed as functional. The conditions noted are these: HT-1080, 48 h.
The subject of the next data set is Liver. The data set is described as §1. Format: ADME. The conditions noted are these: microsomes.
Data set [9] is described as follows: Solubility of compound in water. The note with it: buffer. Format: physicochemical.
The nature of data set [10]: Growth inhibition of human RAS-G12V overexpressing BJeLR cells. The data set is classed as functional.
For data set [11], the target named is T1, Cystine/glutamate transporter (Homo sapiens, UniProt Q9UPY5).
T1 sequence (Q9UPY5 whole entry): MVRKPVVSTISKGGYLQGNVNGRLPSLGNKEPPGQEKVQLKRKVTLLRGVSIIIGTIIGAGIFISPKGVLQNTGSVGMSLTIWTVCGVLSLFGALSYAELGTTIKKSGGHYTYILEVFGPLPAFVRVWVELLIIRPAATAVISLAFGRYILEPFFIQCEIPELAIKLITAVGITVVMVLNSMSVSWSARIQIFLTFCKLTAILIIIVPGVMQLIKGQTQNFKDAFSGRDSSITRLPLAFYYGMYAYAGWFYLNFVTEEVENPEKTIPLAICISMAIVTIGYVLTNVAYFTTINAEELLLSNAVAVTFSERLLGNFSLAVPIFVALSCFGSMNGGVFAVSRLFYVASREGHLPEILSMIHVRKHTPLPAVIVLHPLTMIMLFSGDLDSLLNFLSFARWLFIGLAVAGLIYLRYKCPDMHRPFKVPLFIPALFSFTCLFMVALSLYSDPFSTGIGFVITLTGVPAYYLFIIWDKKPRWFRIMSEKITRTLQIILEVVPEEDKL
In words: Inhibition of Xct in human CCF-STTG1 cells assessed as glutamate release after 2 hrs by fluorometry. Format: cell-based.

The structures appear in SMILES notation. pIC50: −log10 of the molar value. Values after ≈ are worked out from the molar mass of the structure shown. Active and inactive are the calls of the source. The calls are words filed in the database; no cut-off is given here.

`COc1ccc(CN2CCN(CC(=O)c3ccc(OC(C)C)c(-n4c(CN5CCN(C(=O)COc6ccc(Cl)cc6)CC5)nc5ccccc5c4=O)c3)CC2)cc1`: in data set [1], the remaining at 0.5 h was determined as 0.3%. The remaining at 0.75 h in data set [2] was found to be 0.2%. For the same compound, the selectivity ratio in data set [3] was 13. Moreover, the remaining at 5 min in data set [4] was 29.7%. In [5], this compound gave a negative-log IC50 (pIC50) of 7.89. Further, the inhibition result in the data set with DRD is “Active”. The remaining at […] in data set [6] worked out at 2.8%.
`CC(C)Oc1ccc(C(=O)Cn2ccnc2)cc1-n1c(CN2CCN(C(=O)COc3ccc(Cl)cc3)CC2)nc2ccccc2c1=O`: the half-life in data set [7] was 78.5 min. Moreover, the remaining at 0.5 h in data set [1] came out at 75.4%. In data set [2], the remaining at 0.75 h was found to be 64.1%. Besides, the selectivity ratio in [3] worked out at 42. Further, the remaining at 5 min in data set [4] stood at 89.3%. The pIC50 in data set [5] was 8.52. The Stability entry in the data set with Plasma is “Stable”. Also, in the data set with DRD, the inhibition entry was “Active”. Moreover, it took 314 nM to inhibit growth in [8] by half (GI50). Besides, the remaining at […] in [6] was 82.9%.
Consider `C=CCN1CCN(CC(=O)c2ccc(OC(C)C)c(-n3c(CN4CCN(C(=O)COc5ccc(Cl)cc5)CC4)nc4ccccc4c3=O)c2)CC1`, for which the remaining at 0.5 h in data set [1] turned out to be 0%. The remaining at 0.75 h in [2] was 0%. Further, the selectivity ratio in [3] worked out at 1.5. Further, the remaining at 5 min in data set [4] turned out to be 37.3%. The same compound showed a pIC50 in data set [5] of 6.71. Besides, in the data set with DRD, the inhibition result was “inactive”. In data set [6], the remaining at […] is 2.4%.
Turning to `CC(C)Oc1ccc(C(=O)CN2CCOCC2)cc1-n1c(CN2CCN(C(=O)COc3ccc(Cl)cc3)CC2)nc2ccccc2c1=O`, in data set [1], the remaining at 0.5 h was 30.6%. For the same compound, in data set [2], the remaining at 0.75 h was 21.2%. The selectivity ratio in data set [3] was 5. Besides, in data set [4], the remaining at 5 min came out at 83.8%. The compound further gave a negative logarithm of the IC50 (pIC50) in [5] of 6.37. Also, the inhibition result in the data set on DRD was “Active”. Moreover, the remaining at […] in data set [6] was determined as 53.2%.
For the compound `CC(C)Oc1ccc(C(=O)C(F)(F)F)cc1-n1c(CN2CCN(C(=O)COc3ccc(Cl)cc3)CC2)nc2ccccc2c1=O`, in data set [3], the selectivity ratio was found to be 8. This compound also gave a pIC50 in data set [5] of 6.68.
Regarding `CC(=O)c1ccc(OC(C)C)c(-n2c(CN3CCN(C(=O)COc4ccc(Cl)cc4)CC3)nc3ccccc3c2=O)c1`, in the data set with Liver, the t1/2 came to 3.8 min. The remaining at 0.5 h in data set [1] was found to be 0%. In addition, the remaining at 0.75 h in [2] turned out to be 0%. In addition, the Stability in data set [4] is 0.5%. Further, the inhibition result in the data set with DRD is “Active”. Moreover, in data set [8], it took 59 nM to inhibit growth by half (GI50). In addition, the remaining at […] in data set [6] amounted to 0%.
The compound `CC(C)Oc1ccc(C(=O)CF)cc1-n1c(CN2CCN(C(=O)COc3ccc(Cl)cc3)CC2)nc2ccccc2c1=O` came in with a t1/2 in the data set with Liver of 4.7 min. Besides, the remaining at 0.5 h in [1] came out at 0%. Further, the remaining at 0.75 h in data set [2] amounted to 0%. Besides, in data set [4], the Stability is given as 15.5%. The inhibition result in the data set with DRD is “Active”. In addition, the remaining at […] in data set [6] was found to be 0%.
`CC(C)Oc1ccc(C(=O)CN2CCNCC2)cc1-n1c(CN2CCN(C(=O)COc3ccc(Cl)cc3)CC2)nc2ccccc2c1=O`: the remaining at 0.5 h in data set [1] worked out at 76.2%. In addition, the remaining at 0.75 h in [2] stood at 76.9%. Also, in [4], the remaining at 5 min is 87.4%. The Stability entry in the data set with Plasma is “Stable”. Moreover, the GI50 in data set [8] is 550 nM. Moreover, the remaining at […] in data set [6] was 94.7%.
`CC(C)Oc1ccc(C(=O)CN2CCN(C)CC2)cc1-n1c(CN2CCN(C(=O)COc3ccc(Cl)cc3)CC2)nc2ccccc2c1=O`: the selectivity ratio in data set [3] stood at 1.9. In data set [5], the pIC50 was 6.32. Further, in the data set on DRD, the inhibition entry is “inactive”.
Take `CC(C)Oc1ccc(C=O)cc1-n1c(CN2CCN(C(=O)COc3ccc(Cl)cc3)CC2)nc2ccccc2c1=O`: the solubility in [9] was 0.08 mM (≈ 46 µg/mL). Also, the selectivity ratio in data set [3] amounted to 15. The compound further came in with a GI50 in data set [10] of 8 nM. This compound also gave a pIC50 in [5] of 8.10.
`CC(C)Oc1ccc(CN2CCNCC2)cc1-n1c(CN2CCN(C(=O)COc3ccc(Cl)cc3)CC2)nc2ccccc2c1=O`: in data set [7], the half-life turned out to be 55.3 min. The remaining at 0.5 h in data set [1] is 66.6%. The remaining at 0.75 h in data set [2] worked out at 59.4%. In addition, in data set [9], the solubility is 1.4 mM (≈ 903 µg/mL). Moreover, the selectivity ratio in data set [3] was found to be 3. In addition, the negative-log IC50 (pIC50) in data set [5] is 6.52; in data set [11] it was 6.10. In data set [8], this compound yielded a 50% growth inhibitory concentration (GI50) of 1200 nM. Further, in [6], the remaining at […] stood at 79.2%.
Compound `CCOc1ccccc1-n1c(C(C)N2CCN(C(=O)COc3ccc(Cl)cc3)CC2)nc2ccccc2c1=O` (stereo unspecified) [ERASTIN] displayed a half-life in [7] of under 5 min. In [9], this compound yielded a solubility of 0.09 mM (≈ 49.2 µg/mL). The inhibition result in the data set with DRD was “Active”.

A word on the pIC50: it is the negative decadic logarithm of the IC50, by convention in mol/L. What is called half-life is how long it takes for the measured level to halve. A high value points to slow decline. In general, GI50 refers to the concentration that inhibits growth by half. A higher GI50 goes with lower sensitivity of the cells. What is called solubility is how much of the substance goes into solution per volume.
